Results from US12285399B2, “Composition comprising bornyl acetate or pharmaceutically acceptable salt thereof as active ingredient for prevention or treatment of stress-related disorder” (UNIVERSITY-INDUSTRY COOPERATION GROUP OF KYUNG HEE …, priority 2019, dated 2025).

Experiments:
Type in all cases: in vivo, C57BL/6NTac mice
[1] = Body weight change in chronic restrained stress (CRS) depression model; conditions: CRS+BA group, oral, 14 days of restrained stress, 14th day
Procedure: In order to confirm the antidepressant efficacy of bornyl acetate on the animal model of stress depression, an animal model of depression induced by chronic restrained stress (CRS) was prepared. Specifically, the animal model, 8-week-old male C57BL/6NTac mice after birth (Narabiotechnology, Korea; weight 22-24 g) had been stabilized for 1 week. A 50 ml conical tube (SPL Life sciences, Pocheon, Korea) was punched to make a hole, thereby making a restraint frame. The mice were put in the frame and restrained for 2 hours every day for 14 days. After restraint, the mice were allowed to freely ingest water and food in the home cage. Bornyl acetate (25, 50 and 100 mg/kg) of the present invention was dissolved in 0.1 M PBS, and the mixture was orally administered 1 hour before inducing restrained stress every day. Bornyl acetate was administered in a dose per individual of 100 μl. Specifically, the mice were weighed during or after applying restrained stress for 2 hours per day for 14 days, followed by a tail suspension test and forced swimming test were performed, and serum stress hormone (corticosterone) levels were measured (FIGS. 1A and 1B).

[2] = tested on: c-Fos; assay: Immunohistochemical staining for c-Fos in brain of CRS model; conditions: hippocampus and amygdala, CRS+BA group, 100 mg/kg oral
Procedure: In order to confirm the antidepressant efficacy of bornyl acetate on the animal model of stress depression, an animal model of depression induced by chronic restrained stress (CRS) was prepared. Specifically, the animal model, 8-week-old male C57BL/6NTac mice after birth (Narabiotechnology, Korea; weight 22-24 g) had been stabilized for 1 week. A 50 ml conical tube (SPL Life sciences, Pocheon, Korea) was punched to make a hole, thereby making a restraint frame. The mice were put in the frame and restrained for 2 hours every day for 14 days. After restraint, the mice were allowed to freely ingest water and food in the home cage. Bornyl acetate (100 mg/kg) was administered orally 1 hour before induction of restraint stress every day. 14 days later, the mice were anesthetized, and 4% paraformaldehyde was perfused into the heart. Then, the mice were fixed, and the brain was excised. The excised brain was immersed in 4% paraformaldehyde and fixed at 4° C. for one more day. It was then changed to 30% sucrose, and the brain was stored at 4° C. for 3 days or more to prevent freeze damage. The brain was cut into a thickness of 30 μm using a cryocut microtome to prepare the frozen sections. […]

[3] = tested on: iNOS mRNA; assay: RT-PCR of iNOS mRNA in brain (hippocampus and amygdala) of CRS model; conditions: CRS+BA group, 100 mg/kg oral
Procedure: In order to confirm the antidepressant efficacy of bornyl acetate on the animal model of stress depression, an animal model of depression induced by chronic restrained stress (CRS) was prepared. Specifically, the animal model, 8-week-old male C57BL/6NTac mice after birth (Narabiotechnology, Korea; weight 22-24 g) had been stabilized for 1 week. A 50 ml conical tube (SPL Life sciences, Pocheon, Korea) was punched to make a hole, thereby making a restraint frame. The mice were put in the frame and restrained for 2 hours every day for 14 days. After restraint, the mice were allowed to freely ingest water and food in the home cage.
In order to confirm the inhibitory effect of bornyl acetate on the expression of inflammatory mediators in an animal model of depression induced by chronic restrained stress, mRNA expression was confirmed using reverse transcription-polymerase chain reaction (RT-PCR). Bornyl acetate (100 mg/kg) was orally administered 1 hour before inducing the restrained stress every day. […]
Western blot and RT-PCR analysis were performed in the brain (hippocampus and amygdala) of an animal model of chronic restrained stress (CRS)-induced stress depression to exam and quantify the activation level of inflammatory mediators, thereby verifying the modulating effect of bornyl acetate on the inflammatory response in the brain. […]

For `CC(=O)OC1CC2CCC1(C)C2(C)C` (stereo not shown) [BA, bornyl acetate], the body weight change [1] was “no significant increase or decrease”, the “distribution of cells immunostained by c-Fos” value [2] was “consistent” and the “mRNA expression of iNOS (CRS-induced increase)” value ([3]; amygdala) was “significantly inhibited”. The “mRNA expression of iNOS (CRS-induced increase)” value ([3]; hippocampus) was “significantly inhibited”.
